Measurements as given in patent US10696651B2, “Heterocyclic compound” (Takeda Pharmaceutical Company Limited, priority 2016, dated 2020).
Counter-ions that a name gives are not always drawn. Like-named read-outs stand apart in the source and are kept apart here.

Experiments:
[1] = target: T1, human GCN2 full-length protein (Homo sapiens, UniProt Q9P2K8); test: GCN2 enzyme inhibition assay (LanthaScreen TR-FRET); assay type: biochemical; conditions: GCN2 enzyme inhibitory activity at compound concentration of 3 μM, read-out: inhibitory rate
T1 construct: purchased Carna Biosciences, Inc
T1 sequence (Q9P2K8 whole entry): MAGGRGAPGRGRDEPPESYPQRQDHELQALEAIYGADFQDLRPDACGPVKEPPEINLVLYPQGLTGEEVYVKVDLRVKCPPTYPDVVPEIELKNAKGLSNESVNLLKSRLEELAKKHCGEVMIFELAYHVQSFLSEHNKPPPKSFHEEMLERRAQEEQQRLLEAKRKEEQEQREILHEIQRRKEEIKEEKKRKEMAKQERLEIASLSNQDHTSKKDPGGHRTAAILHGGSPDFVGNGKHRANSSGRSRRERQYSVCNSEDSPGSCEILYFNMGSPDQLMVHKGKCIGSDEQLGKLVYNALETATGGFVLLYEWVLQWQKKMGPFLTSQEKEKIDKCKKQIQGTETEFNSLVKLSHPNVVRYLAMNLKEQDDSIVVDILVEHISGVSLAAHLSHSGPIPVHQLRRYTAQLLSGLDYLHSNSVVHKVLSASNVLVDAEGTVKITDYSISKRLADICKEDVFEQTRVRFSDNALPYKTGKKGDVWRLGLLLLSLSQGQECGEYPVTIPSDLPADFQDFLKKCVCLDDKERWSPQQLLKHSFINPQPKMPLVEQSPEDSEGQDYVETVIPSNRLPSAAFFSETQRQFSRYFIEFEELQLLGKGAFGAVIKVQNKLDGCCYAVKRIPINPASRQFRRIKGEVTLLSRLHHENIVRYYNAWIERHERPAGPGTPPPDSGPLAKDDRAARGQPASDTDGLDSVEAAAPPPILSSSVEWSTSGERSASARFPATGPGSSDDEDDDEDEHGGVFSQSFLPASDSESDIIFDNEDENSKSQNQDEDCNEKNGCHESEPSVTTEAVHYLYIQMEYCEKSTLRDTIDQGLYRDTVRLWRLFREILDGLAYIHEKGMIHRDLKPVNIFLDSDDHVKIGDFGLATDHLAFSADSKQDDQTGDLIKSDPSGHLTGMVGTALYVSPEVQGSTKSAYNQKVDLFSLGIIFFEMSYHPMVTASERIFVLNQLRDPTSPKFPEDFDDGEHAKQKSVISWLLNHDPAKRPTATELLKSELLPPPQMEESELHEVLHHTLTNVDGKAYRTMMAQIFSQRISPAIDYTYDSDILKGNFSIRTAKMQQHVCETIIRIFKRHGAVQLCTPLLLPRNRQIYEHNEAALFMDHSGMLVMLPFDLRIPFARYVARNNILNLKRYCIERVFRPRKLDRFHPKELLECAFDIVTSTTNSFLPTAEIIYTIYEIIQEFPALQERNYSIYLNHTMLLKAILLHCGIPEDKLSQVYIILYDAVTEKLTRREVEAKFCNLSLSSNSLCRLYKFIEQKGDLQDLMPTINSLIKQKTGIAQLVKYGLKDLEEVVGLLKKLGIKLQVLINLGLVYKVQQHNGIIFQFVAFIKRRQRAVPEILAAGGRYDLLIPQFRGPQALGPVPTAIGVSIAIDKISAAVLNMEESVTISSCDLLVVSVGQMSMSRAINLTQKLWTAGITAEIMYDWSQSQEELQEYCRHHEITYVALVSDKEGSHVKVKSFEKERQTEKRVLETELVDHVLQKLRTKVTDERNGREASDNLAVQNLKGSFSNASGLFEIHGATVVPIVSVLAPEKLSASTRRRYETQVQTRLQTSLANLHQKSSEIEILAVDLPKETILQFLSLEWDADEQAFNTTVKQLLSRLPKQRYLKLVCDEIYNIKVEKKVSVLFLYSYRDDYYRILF
Procedure: GCN2 enzyme was preserved at -70° C. and used. The GCN2 enzyme inhibitory activity of the test compound was measured by the LanthaScreenTR-FRET (Time Resolved Fluorescence Resonance Energy Transfer) method (manufactured by ThermoFisher). […] Then, GCN2 enzyme solution diluted with the assay buffer was added by 2 μL to each well. The enzyme solution was not added to a part of the wells to give a control group. After incubation at room temperature for 1 hr, 570 μM ATP solution containing 390 nM […] physiological protein substrate (ThermoFisher) was added by 2 μL. After reaction at room temperature for 1 hr, TR-FRET Dilution Buffer (ThermoFisher) containing 4 nM Terbium-labeled anti-elF2alpha [[…]] antibody (ThermoFisher) dissolved therein was added by 2 μL to each well. After standing at room temperature for 1 hr, time decomposition fluorescence measurement was performed on platereader Envision (manufactured by PerkinElmer).

[2] = test system: osteosarcoma cell line U-2-OS; test: In vitro cell proliferation inhibition assay (CellTiter-Glo, low amino acid media); assay type: cell-based; conditions: McCoy's 5A low amino acid media; for inhibition at 0.1 µM: Homo sapiens, U2OS, 72 h, cell proliferation inhibitory rate; for inhibitory rate: 72 hr
Procedure: A cell suspension (40 μL) (1000 cells/well) of osteosarcoma cell line U-2-OS obtained from ATCC (American Type Culture Collection) was seeded on a 384 plate using McCoy's 5A low amino acid media (amino acid content 25%). The seeded cells were incubated (37° C., 5% CO2) overnight to 24 hr at the longest. Each example compound was dissolved (10 mM) in DMSO, delivered to wells by using TECAN HP D300 (TECAN), and the plate was incubated for 72 hr (37° C., 5% CO2). A well without addition of compound was treated similarly as a control group. Celltiter-Glo (registered trade mark) Luminescent Cell Viability Assay reagent (Promega KK) equilibrated at room temperature was added (40 μL/well) to cells in each well before compound treatment (untreated group) and 72 hours after compound treatment. After incubation for 10 min, cell proliferation inhibitory rate was measured by the amount of ATP which is a cell viability marker. Luminescence of cells showing ATP amount was measured using ARVO MX (PerkinElmer). Based on the luminescence values of the untreatment group, the control group without addition of Example compound solution, and the treatment group with addition of Example compound, the cell proliferation inhibitory rate (%) of the test compound at a compound concentration of 100 nM was calculated by the following formula and the results thereof are shown in Tables 4-1, 4-2. Inhibitory rate (%)=(1−(luminescence value of treatment group−luminescence value of untreatment group)÷(luminescence value of control group−luminescence value of untreatment group))×100

SMILES	inhibition at 3 µM ([1]; Table 3-1) [%]	inhibition at 0.1 µM ([2]; Table 4-2) [%]	inhibition at 0.1 µM ([2]; Table 4-1) [%]	also measured
Nc1ncc(C#Cc2c(F)ccc(NS(=O)(=O)c3cc(Cl)cc4ccoc34)c2F)cn1 [Example 173, N-(3-((2-aminopyrimidin-5-yl)ethynyl)-2,4-difluorophenyl)-5-chloro-1-benzofuran-7-sulfonamide]		76		inhibition at 3 µM ([1]; Table 3-2): 99%
Nc1ncc(C#Cc2c(F)ccc(NS(=O)(=O)c3cc(Cl)ccc3Cl)c2F)cn1 [Example 17, N-(3-((2-aminopyrimidin-5-yl)ethynyl)-2,4-difluorophenyl)-2,5-dichlorobenzenesulfonamide]	99			inhibitory rate ([2]; Table 4-1): 73%
Cc1ccc(Cl)cc1S(=O)(=O)Nc1ccc(F)c(C#Cc2cnc(N)nc2)c1F [Example 19, N-(3-((2-aminopyrimidin-5-yl)ethynyl)-2,4-difluorophenyl)-5-chloro-2-methylbenzenesulfonamide]	98		87	
C[C@H](CO)Nc1ncc(C#Cc2c(F)ccc(NS(=O)(=O)c3cc(Cl)cc4c3OCC4O)c2F)cn1 (stereo partly drawn) [Example 187, 5-chloro-N-(2,4-difluoro-3-((2-(((2R)-1-hydroxypropan-2-yl)amino)pyrimidin-5-yl)ethynyl)phenyl)-3-hydroxy-2,3-dihydro-1-benzofuran-7-sulfonamide]				inhibitory rate ([2]; Table 4-2): 64%
COc1c(CO)cc(Cl)cc1S(=O)(=O)Nc1ccc(F)c(C#Cc2cnc(N)nc2)c1F [Example 129, N-(3-((2-aminopyrimidin-5-yl)ethynyl)-2,4-difluorophenyl)-5-chloro-3-(hydroxymethyl)-2-methoxybenzenesulfonamide]		70		inhibition at 3 µM ([1]; Table 3-2): 99%
COc1ncc(Cl)cc1S(=O)(=O)Nc1ccc(F)c(C#Cc2cnc(N[C@H]3CC[C@H](O)CC3)nc2)c1F [Example 174, 5-chloro-N-(2,4-difluoro-3-((2-((trans-4-hydroxycyclohexyl)amino)pyrimidin-5-yl)ethynyl)phenyl)-2-methoxypyridine-3-sulfonamide]		83		inhibition at 3 µM ([1]; Table 3-2): 99%
Cc1ncc(Cl)cc1S(=O)(=O)Nc1ccc(F)c(C#Cc2cnc(Nc3cnn(C)c3)nc2)c1F [Example 163, 5-chloro-N-(2,4-difluoro-3-((2-((1-methyl-1H-pyrazol-4-yl)amino)pyrimidin-5-yl)ethynyl)phenyl)-2-methylpyridine-3-sulfonamide]		88		inhibition at 3 µM ([1]; Table 3-2): 100%
O=S(=O)(Nc1ccc(F)c(C#Cc2cnc(N[C@H]3CC[C@H](O)CC3)nn2)c1F)c1cc(Cl)cc(CO)c1Cl [Example 177, 2,5-dichloro-N-(2,4-difluoro-3-((3-((trans-4-hydroxycyclohexyl)amino)-1,2,4-triazin-6-yl)ethynyl)phenyl)-3-(hydroxymethyl)benzenesulfonamide]		72		inhibition at 3 µM ([1]; Table 3-2): 100%
Cc1ccc(Cl)cc1S(=O)(=O)Nc1ccc(F)c(C#Cc2cnc(N)c(C)n2)c1F [Example 31, N-(3-((5-amino-6-methylpyrazin-2-yl)ethynyl)-2,4-difluorophenyl)-5-chloro-2-methylbenzenesulfonamide]	99		53	
COc1c(CO)cc(Cl)cc1S(=O)(=O)Nc1ccc(F)c(C#Cc2cnc(NC3CC3)nc2)c1F [Example 138, 5-chloro-N-(3-((2-(cyclopropylamino)pyrimidin-5-yl)ethynyl)-2,4-difluorophenyl)-3-(hydroxymethyl)-2-methoxybenzenesulfonamide]		87		inhibition at 3 µM ([1]; Table 3-2): 99%
Cn1ncc2c(S(=O)(=O)Nc3ccc(F)c(C#Cc4cnc(N)nc4)c3F)cc(Cl)cc21 [Example 192, N-(3-((2-aminopyrimidin-5-yl)ethynyl)-2,4-difluorophenyl)-6-chloro-1-methyl-1H-indazole-4-sulfonamide]		43		
Nc1ncc(C#Cc2c(F)ccc(NS(=O)(=O)c3cc(Cl)ccc3Cl)c2F)cn1 [Example 13, N-(3-((2-aminopyrimidin-5-yl)ethynyl)-2,4-difluorophenyl)-2,5-dichlorobenzenesulfonamide TFA Salt]			70	
COc1c(CO)cc(Cl)cc1S(=O)(=O)Nc1ccc(F)c(C#Cc2cnc(NCC3(O)CC3)nc2)c1F [Example 154, 5-chloro-N-(2,4-difluoro-3-((2-(((1-hydroxycyclopropyl)methyl)amino)pyrimidin-5-yl)ethynyl)phenyl)-3-(hydroxymethyl)-2-methoxybenzenesulfonamide]		70		
O=S(=O)(Nc1ccc(F)c(C#Cc2cnc(N[C@H]3CC[C@H](O)CC3)nc2)c1F)c1cc(Cl)ccc1Cl [Example 32, 2,5-dichloro-N-(2,4-difluoro-3-((2-((trans-4-hydroxycyclohexyl)amino)pyrimidin-5-yl)ethynyl)phenyl)benzenesulfonamide TFA Salt]	99			
Nc1ncc(C#Cc2c(F)ccc(NS(=O)(=O)c3cc(Cl)ccc3C(F)(F)F)c2F)cn1 [Example 6, N-(3-((2-aminopyrimidin-5-yl)ethynyl)-2,4-difluorophenyl)-5-chloro-2-(trifluoromethyl)benzenesulfonamide]	99			
Nc1ncc(C#Cc2c(F)ccc(NS(=O)(=O)c3cc(Cl)ccc3OC(F)(F)F)c2F)cn1 [Example 12, N-(3-((2-aminopyrimidin-5-yl)ethynyl)-2,4-difluorophenyl)-5-chloro-2-(trifluoromethoxy)benzenesulfonamide]	99			

Second part, led by results:

inhibition at 3 µM ([1]; Table 3-1) [%]	SMILES	inhibition at 0.1 µM ([2]; Table 4-2) [%]	inhibition at 0.1 µM ([2]; Table 4-1) [%]	also measured
98	CNc1ncc(C#Cc2c(F)ccc(NS(=O)(=O)c3cc(Cl)ccc3Cl)c2F)cn1 [Example 37, 2,5-dichloro-N-(2,4-difluoro-3-((2-(methylamino)pyrimidin-5-yl)ethynyl)phenyl)benzenesulfonamide TFA Salt]		45	
100	O=S(=O)(Nc1ccc(F)c(C#Cc2cnc3[nH]ncc3c2)c1F)c1c(Cl)c(Cl)cc(Cl)c1Cl [Example 23, 2,3,5,6-tetrachloro-N-(2,4-difluoro-3-(1H-pyrazolo[3,4-b]pyridin-5-ylethynyl)phenyl)benzenesulfonamide]		72	
99	O=S(=O)(Nc1ccc(F)c(C#Cc2cnc3[nH]ncc3c2)c1F)c1cc(Cl)cc(Cl)c1 [Example 25, 3,5-dichloro-N-(2,4-difluoro-3-(1H-pyrazolo[3,4-b]pyridin-5-ylethynyl)phenyl)benzenesulfonamide]		44	
99	COc1ncc(Cl)cc1S(=O)(=O)Nc1ccc(F)c(C#Cc2cnc3[nH]ncc3c2)c1F [Example 5, 5-chloro-N-(2,4-difluoro-3-(1H-pyrazolo[3,4-b]pyridin-5-ylethynyl)phenyl)-2-methoxypyridine-3-sulfonamide]		91	
99	O=S(=O)(Nc1ccc(F)c(C#Cc2cnc3[nH]ncc3c2)c1F)c1cc(Cl)ccc1F [Example 26, 5-chloro-N-(2,4-difluoro-3-(1H-pyrazolo[3,4-b]pyridin-5-ylethynyl)phenyl)-2-fluorobenzenesulfonamide TFA Salt]		41	
99	C[C@H](CO)Nc1ncc(C#Cc2c(F)ccc(NS(=O)(=O)c3cc(Cl)ccc3Cl)c2F)cn1 [Example 22, 2,5-dichloro-N-(2,4-difluoro-3-((2-(((2R)-1-hydroxypropan-2-yl)amino)pyrimidin-5-yl)ethynyl)phenyl)benzenesulfonamide TFA Salt]			
95	Nc1ncc(C#Cc2c(F)ccc(NS(=O)(=O)c3cc(Cl)cc(Cl)c3)c2F)cn1 [Example 27, N-(3-((2-aminopyrimidin-5-yl)ethynyl)-2,4-difluorophenyl)-3,5-dichlorobenzenesulfonamide]			
99	O=S(=O)(Nc1ccc(F)c(C#Cc2cnc(NCCCO)nc2)c1F)c1cc(Cl)ccc1Cl [Example 28, 2,5-dichloro-N-(2,4-difluoro-3-((2-((3-hydroxypropyl)amino)pyrimidin-5-yl)ethynyl)phenyl)benzenesulfonamide TFA Salt]			
